Source: patent US12370235B2, “Synthetic, non-natural antimicrobial peptides inspired by Staphylococcus auricularis delta toxin” (University of Saskatchewan, priority 2021, dated 2025)
Ends that are not written are not given here.

How the values were obtained:
[1] = test system: Mannheimia haemolytica ATCC 33393; assay: MIC, broth dilution; assay type: cell-based; settings: Table 11; highest concentration 25 μg/mL
How it was run: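 Read-out is the lowest peptide concentration showing no growth after an overnight standing culture at 37 °C. Two-fold serial dilutions of 95%-pure peptide were tested against M. haemolytica ATCC 33393 at OD 6×10^−4 in cation-adjusted MH broth.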

C. albicans Y537 = assay: MIC, YPD broth; assay type: cell-based, Candida albicans; settings: Table 8
C. albicans MYA-2876 = assay: MIC, YPD broth; assay type: cell-based, Candida albicans; settings: Table 8
How it was run: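 Yeast cells were diluted in YPD broth, and 180 μl aliquots were mixed with 20 μl of peptide from 2-fold serial dilutions in flat-bottom 96-well microtitre plates. Wells receiving 20 μl sterile water served as controls. After standing incubation overnight at 37° C, the MIC was taken as the lowest peptide concentration with no visible microbial growth.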

[2] = test system: S. aureus ATCC BAA-2313 (MRSA SCCmec type XI); assay: MIC, broth dilution; assay type: cell-based, Staphylococcus aureus; settings: Table 5; STIP3 variants, highest concentration 100 μg/mL
How it was run: (§1)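 MIC defined as the lowest peptide level giving no growth after overnight standing incubation at 37° C. Bacteria at OD 6×10^−4 in cation-adjusted MH broth met 2-fold serial peptide dilutions; peptide purity 95%.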

[3] = test system: S. aureus ATCC BAA-41 (MRSA SCCmec type II); assay: MIC, broth dilution; assay type: cell-based, Staphylococcus aureus; settings: Table 5; STIP3 variants, highest concentration 100 μg/mL
How it was run: as §1

[4] = test system: S. aureus ATCC BAA-2094 (MRSA SCCmec type V); assay: MIC, broth dilution; assay type: cell-based, Staphylococcus aureus; settings: Table 5; STIP3 variants, highest concentration 100 μg/mL
How it was run: as §1

[5] = test system: S. aureus ATCC BAA-44 (MRSA SCCmec type I); assay: MIC, broth dilution; assay type: cell-based, Staphylococcus aureus; settings: Table 5; STIP3 variants, highest concentration 100 μg/mL
How it was run: as §1

[6] = test system: S. aureus ATCC 33592 (MRSA SCCmec type III); assay: MIC, broth dilution; assay type: cell-based, Staphylococcus aureus; settings: Table 5; STIP3 variants, highest concentration 100 μg/mL
How it was run: as §1

S. aureus ATCC 29213 = assay: MIC, broth dilution; assay type: cell-based, Staphylococcus aureus; settings: Table 5; STIP3 variants, highest concentration 100 μg/mL
How it was run: as §1

[7] = test system: S. aureus ATCC BAA-1683 (MRSA SCCmec type IV); assay: MIC, broth dilution; assay type: cell-based, Staphylococcus aureus; settings: Table 5; STIP3 variants, highest concentration 100 μg/mL
How it was run: as §1

[8] = test system: S. aureus ATCC BAA-42 (MRSA SCCmec type VI); assay: MIC, broth dilution; assay type: cell-based, Staphylococcus aureus; settings: Table 5; STIP3 variants, highest concentration 100 μg/mL
How it was run: as §1

[9] = test system: Saccharomyces cerevisiae AR 400; assay: MIC, YPD broth, CDC and FDA AR Candida isolate panel; assay type: cell-based
How it was run: (§2)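 Growth inhibition by peptides (95% pure) is scored after standing overnight incubation at 37° C. Cells at an optical density of […] are exposed to a doubling dilution series of peptide.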

[10] = test system: Candida lusitaniae AR 398; assay: as above; assay type: cell-based
How it was run: as §2

[11] = test system: Candida duobushaemulonii AR 392; assay: as above; assay type: cell-based
How it was run: as §2

Kodamae ohmeri AR 396 = assay: as above; assay type: cell-based
How it was run: as §2

Candida krusei AR 397 = assay: as above; assay type: cell-based
How it was run: as §2

[12] = test system: Saccharomyces cerevisiae AR 399; assay: as above; assay type: cell-based
How it was run: as §2

[13] = test system: Candida duobushaemulonii AR 394; assay: as above; assay type: cell-based
How it was run: as §2

[14] = test system: Candida duobushaemulonii AR 391; assay: as above; assay type: cell-based
How it was run: as §2

[15] = test system: Candida haemulonii AR 393; assay: as above; assay type: cell-based
How it was run: as §2

[16] = Table 9 top part: titrations from 1.56 to 100 μg/mL
[17] = Table 9 below the line: only 200 or 100 μg/mL tested, values reported as 100 are ≤100 μg/mL

Substance | MIC (μg/mL) M. haemolytica [1] | MIC C. albicans Y537 (C. albicans Y537) | MIC C. albicans MYA-2876 (C. albicans MYA-2876) | MIC S. aureus ATCC BAA 2313 (XI) [2] | MIC S. aureus ATCC BAA 41 (II) [3] | MIC S. aureus ATCC BAA 2094 (V) [4] | MIC S. aureus ATCC BAA 44 (I) [5] | MIC S. aureus ATCC 33592 (III) [6] | MIC S. aureus ATCC 29213 (S. aureus ATCC 29213) | MIC S. aureus ATCC BAA 1683 (IV) [7] | MIC S. aureus ATCC BAA 42 (VI) [8] | MIC (μg/mL) Saccharomyces cerevisiae AR 400 [9, 16] | MIC (μg/mL) Candida lusitaniae AR 398 [10, 16] | MIC (μg/mL) Candida duobushaemulonii AR 392 [11, 16] | MIC (μg/mL) Kodamae ohmeri AR 396 (Kodamae ohmeri AR 396; [16]) | MIC (μg/mL) Candida krusei AR 397 (Candida krusei AR 397; [16]) | also measured
TVKALVKWILKTVAKFW [STIP3-21, TVKALVKWILKTVAKFW] | 12.5 µg/mL | > (> symbol indicates that no inhibition was observed at the highest concentration of peptide tested: 100 μg/mL) | > (> symbol indicates that no inhibition was observed at the highest concentration of peptide tested: 100 μg/mL) | 12.5 µg/mL | 25 µg/mL | 12.5 µg/mL | 25 µg/mL | 25 µg/mL | 25 µg/mL | 12.5 µg/mL | 25 µg/mL | 200 µg/mL | 50 µg/mL | > (MIC values reported at the top of the table (above the double line) are based on titrations from 1.56 to 100 μg/mL) | > (MIC values reported at the top of the table (above the double line) are based on titrations from 1.56 to 100 μg/mL) | 100 µg/mL | –
TVKALVKWILKTVAKFW-NH2 [STIP3-31, TVKALVKWILKTVAKFW-NH2] | 6.25 µg/mL | > (> symbol indicates that no inhibition was observed at the highest concentration of peptide tested: 100 μg/mL) | > (> symbol indicates that no inhibition was observed at the highest concentration of peptide tested: 100 μg/mL) | 25 µg/mL | 25 µg/mL | 25 µg/mL | 25 µg/mL | 25 µg/mL | 25 µg/mL | 25 µg/mL | 50 µg/mL | – | – | – | – | – | MIC (μg/mL) Saccharomyces cerevisiae AR 399 [12, 17]: > (values below the line were determined using two concentrations of peptide 200 or 100 μg/mL); MIC (μg/mL) Candida duobushaemulonii AR 394 [13, 17]: > (values below the line were determined using two concentrations of peptide 200 or 100 μg/mL); MIC (μg/mL) Saccharomyces cerevisiae AR 400 [9, 17]: > (values below the line were determined using two concentrations of peptide 200 or 100 μg/mL); MIC (μg/mL) Candida lusitaniae AR 398 [10, 17]: > (values below the line were determined using two concentrations of peptide 200 or 100 μg/mL); MIC (μg/mL) Candida duobushaemulonii AR 392 [11, 17]: > (values below the line were determined using two concentrations of peptide 200 or 100 μg/mL); MIC (μg/mL) Candida duobushaemulonii AR 391 [14, 17]: > (values below the line were determined using two concentrations of peptide 200 or 100 μg/mL); MIC (μg/mL) Kodamae ohmeri AR 396 (Kodamae ohmeri AR 396; [17]): > (values below the line were determined using two concentrations of peptide 200 or 100 μg/mL); MIC (μg/mL) Candida haemulonii AR 393 [15, 17]: > (values below the line were determined using two concentrations of peptide 200 or 100 μg/mL); MIC (μg/mL) Candida krusei AR 397 (Candida krusei AR 397; [17]): > (values below the line were determined using two concentrations of peptide 200 or 100 μg/mL)
TVKGLVKWILNVVKKFA-NH2 [STIP3-30, TVKGLVKWILNVVKKFA-NH2] | 12.5 µg/mL | 50 µg/mL | 25 µg/mL | 25 µg/mL | 25 µg/mL | 25 µg/mL | 12.5 µg/mL | 12.5 µg/mL | 12.5 µg/mL | 12.5 µg/mL | 25 µg/mL | 12.5 µg/mL | 6.25 µg/mL | 25 µg/mL | 25 µg/mL | 12.5 µg/mL | MIC (μg/mL) Saccharomyces cerevisiae AR 399 [12, 16]: 25 µg/mL; MIC (μg/mL) Candida duobushaemulonii AR 394 [13, 16]: 25 µg/mL; MIC (μg/mL) Candida duobushaemulonii AR 391 [14, 16]: 12.5 µg/mL; MIC (μg/mL) Candida haemulonii AR 393 [15, 16]: 100 µg/mL
